Assay [1] has as its system tubulin polymerization in HCT-116 cells. The experiment in a line: Cellular Tubulin Polymerization Assay. The note with it: Homo sapiens, Table 3, read-out: Tubulin Cellular (IC50 class). The format is cell-based. On the procedure: HCT-116 cells (catalog #CCL-247) are obtained from the American Type Culture Collect (ATCC, Manassas, VA). Briefly, cells are grown in McCoy's 5A supplemented with 10% characterized fetal bovine serum (Invitrogen, Carlsbad, CA) and 1% Penicillin/Streptomycin/L-Glutamine at 37° C., 5% CO2, and 95% humidity. Cells are expanded until reaching 70-95% confluency at which point they are subcultured or harvested for assay use. 450000 cells are added per well in 1500 μL complete growth medium in a tissue culture treated, 12-well plate. Plates are incubated for 18 to 24 h at 37° C., 5% CO2, and 95% humidity. At the end of the incubation, 2000 μL of base culture media is added to each well, followed by a serial dilution of compound. Plates are incubated for an additional 1 h at 37° C., 5% CO2, and 95% humidity. Lysates are generated by the addition of 100 μL Lysis and Microtubule Stabilization Buffer 1 (LMS01, Cytoskeleton Inc, Denver, CO) supplemented with GTP (BST06, Cytoskeleton Inc), ATP (BSA04, Cytoskeleton Inc), and Protease Inhibitor Cocktail Stock (PIC02, Cytoskeleton Inc). Cells are scraped off wells using a rubber cell scraper and collected in a clean 96-well plate. Lysates are centrifuged at 1000×g, 37° C. for 10 min and supernatant fraction is placed into an additional 96-well plate. The remaining pellet fraction is reconstituted in 100 μL LMS01 buffer and sonicated for 10 min. Pellet and Supernatant fractions are probed for α-tubulin via western blot analysis on the Jess System or equivalent (Bio-techne, Minneapolis, MN). Data is analyzed using Prism software (Graphpad, San Diego, CA) to calculate IC50values.

Assay [2] addresses T1, C-Raf kinase (SEQ ID NO: 2) (Homo sapiens, UniProt P04049, Y340D/Y341D).
T1 construct: C-Raf residues 306-end; Y340D, Y341D with; GST (N); purchased Sigma
The assay is described as follows: Biochemical Assay for C-Raf (coupled pyruvate kinase/lactate dehydrogenase assay).

Another assay has as its system HCT-116 cells. The assay is described as follows: HCT-116 Cell Proliferation Assay. It counts as cell-based. The note with it: Homo sapiens. Summed up: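 HCT-116 cells, 375/well in McCoy's 5A with 10% FBS, exposed to serial compound dilutions in triplicate for 67 to 72 hours at 37 °C. Viability read by resazurin fluorescence (ex 540/em 600 nm) after a further 4 to 5 h; IC50 values calculated.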

In the next assay the test system is Pa16c cells. The experiment in a line: Pa16c Cell Proliferation Assay. The format is cell-based. The following applies: Table 2, read-out: Inhibition of cell proliferation in Pa16c (IC50 class). In outline:
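Mouse Pa16c cells, 750/well in DMEM with 10% FBS, exposed to serially diluted compound in triplicate for 67 to 72 h at 37° C. Viability read by resazurin reduction over a further 18 to 24 h (ex 540/em 600 nm). IC50 calculated from the dose-response.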

A further assay concerns HPAF-II cells. The experiment in a line: HPAF-II Cell Proliferation Assay. The format is cell-based. The following applies: Homo sapiens, HPAF-II. Summed up: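 HPAF-II cells (750/well) in complete MEM with 10% FBS were exposed to serially diluted compound in triplicate for 115–120 h at 37 °C, 5% CO2. Resazurin was then added for 18–24 h more; fluorescence (ex 540/em 600 nm) gave IC50.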

The target in the next assay is T2, Porcine Brain Tubulin (Sus scrofa, UniProt P02550+P02554).
T2 construct: Porcine Brain Tubulin (T240); purchased Cytoskeleton, Inc T240; BK011P; host or cells: porcine brain (tissue-purified)
The assay is described as follows: Biochemical Tubulin Polymerization Assay. The following applies: Table 3; Tubulin Biochemical assay; read-out: Tubulin Biochem (IC50 class).

The mark [3] stands for this setting: 1 mM ATP, read-out: CRAF (inhibition of biochemical activity, IC50).
Setting [4] is: Table 3, read-out: CRAF (IC50 class).
The mark [5] stands for this setting: HCT-116, HCT-116 cells, Table 2, read-out: Inhibition of cell proliferation in HCT-116 (IC50 class).
[6] abbreviates: HCT-116, Table 3, read-out: HCT-116 (IC50 class).
The mark [7] stands for this setting: HPAF-II cells, Table 2, read-out: Inhibition of cell proliferation in HPAF-II (IC50 class).
Where [8] appears, read: Table 3, read-out: HPAF-II (IC50 class).

Read-outs that look alike come from different tables or passages of the source.

T2 sequence (P02550 whole entry): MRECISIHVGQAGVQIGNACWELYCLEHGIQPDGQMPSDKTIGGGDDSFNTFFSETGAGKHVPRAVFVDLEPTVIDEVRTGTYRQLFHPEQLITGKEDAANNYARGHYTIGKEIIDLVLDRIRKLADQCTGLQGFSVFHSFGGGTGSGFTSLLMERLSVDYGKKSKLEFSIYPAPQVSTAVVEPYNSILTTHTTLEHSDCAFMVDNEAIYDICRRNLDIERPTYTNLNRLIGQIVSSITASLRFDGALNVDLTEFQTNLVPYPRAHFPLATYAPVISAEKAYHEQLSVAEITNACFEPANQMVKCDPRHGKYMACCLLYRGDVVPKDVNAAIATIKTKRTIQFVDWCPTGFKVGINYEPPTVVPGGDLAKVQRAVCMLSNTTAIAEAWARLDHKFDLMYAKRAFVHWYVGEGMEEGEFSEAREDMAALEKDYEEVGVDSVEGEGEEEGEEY
T2 sequence (P02554 whole entry): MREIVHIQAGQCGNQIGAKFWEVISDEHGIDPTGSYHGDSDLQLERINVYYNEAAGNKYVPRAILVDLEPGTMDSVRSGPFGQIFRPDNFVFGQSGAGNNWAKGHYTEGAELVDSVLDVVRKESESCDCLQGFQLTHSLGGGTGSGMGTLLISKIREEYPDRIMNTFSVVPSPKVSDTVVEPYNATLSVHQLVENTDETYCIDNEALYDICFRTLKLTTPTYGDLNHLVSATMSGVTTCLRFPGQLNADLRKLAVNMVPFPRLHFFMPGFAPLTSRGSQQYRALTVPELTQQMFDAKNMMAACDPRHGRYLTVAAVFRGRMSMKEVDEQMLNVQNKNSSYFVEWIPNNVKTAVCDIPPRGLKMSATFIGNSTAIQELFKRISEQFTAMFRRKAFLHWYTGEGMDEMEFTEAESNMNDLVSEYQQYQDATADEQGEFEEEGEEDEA
T1 sequence (P04049 307-648 Y340D/Y341D): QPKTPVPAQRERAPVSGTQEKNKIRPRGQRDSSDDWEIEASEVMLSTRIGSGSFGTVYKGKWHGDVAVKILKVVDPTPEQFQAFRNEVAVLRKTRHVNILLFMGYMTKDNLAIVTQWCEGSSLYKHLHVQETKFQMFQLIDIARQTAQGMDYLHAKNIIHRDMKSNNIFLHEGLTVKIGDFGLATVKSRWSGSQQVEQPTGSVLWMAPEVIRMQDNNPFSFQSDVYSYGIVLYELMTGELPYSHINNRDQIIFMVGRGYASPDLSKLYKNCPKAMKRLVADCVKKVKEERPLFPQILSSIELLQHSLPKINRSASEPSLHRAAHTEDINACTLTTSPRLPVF

As to `Cc1ccc(NC(=O)c2cnc(C(F)(F)F)nc2)cc1-c1ccnc(-c2ccnc(NC(=O)C3CC3)c2)c1` [Example 17], the IC50 is 0.5 to 1 µM in assay [1]; under 0.1 µM in assay [2] (setting [3]); under 0.1 µM in assay [2] (setting [4]); 0.1 to 0.5 µM in the assay with HCT-116 cells (setting [5]); 0.1 to 0.5 µM with HCT-116 cells (setting [6]); under 0.1 µM in the assay on Pa16c cells. Besides, the IC50 in the assay on HPAF-II cells (setting [7]) is under 0.1 µM; with HPAF-II cells (setting [8]) it was under 0.1 µM; on Porcine Brain Tubulin, 3 to 20 µM.
As for `Cc1ccc(NC(=O)c2cc(C3CC3)cnn2)cc1-c1ccnc(-c2ccnc(NC(=O)C3CC3)c2)c1` [Example 43], the IC50 (in assay [1]; in assay [2] (setting [3]); in assay [2] (setting [4]); in the assay on HCT-116 cells (setting [5]); in the assay with HCT-116 cells (setting [6]); with Pa16c cells) was under 0.1 µM each time. Moreover, the IC50 with HPAF-II cells (setting [7]) lay within 0.1 to 0.5 µM; with HPAF-II cells (setting [8]), 0.1 to 0.5 µM; on Porcine Brain Tubulin, 3 to 20 µM.
For `Cc1ccc(NC(=O)c2cc(C(C)(F)F)cnn2)cc1-c1ccnc(-c2ccnc(NC(=O)C3CC3)c2)c1` [Example 57], the IC50 was 1 to 10 µM in assay [1]; under 0.1 µM in assay [2] (setting [3]); under 0.1 µM in assay [2] (setting [4]); under 0.1 µM in the assay with HCT-116 cells (setting [5]); under 0.1 µM in the assay on HCT-116 cells (setting [6]); 0.1 to 0.5 µM in the assay with Pa16c cells. Moreover, the IC50 with HPAF-II cells (setting [7]) was under 0.1 µM; with HPAF-II cells (setting [8]), under 0.1 µM; at Porcine Brain Tubulin, under 3 µM.
For `Cc1ccc(NC(=O)c2cc(C(F)(F)F)cnn2)cc1-c1ccnc(-c2ccnc(NC(=O)C3CC3)c2)c1` [Example 67], the IC50 (in assay [1]; in assay [2] (setting [3]); in assay [2] (setting [4]); in the assay with HCT-116 cells (setting [5]); with HCT-116 cells (setting [6]); with Pa16c cells) was under 0.1 µM in each case. In addition, the IC50 in the assay with HPAF-II cells (setting [7]) was under 0.1 µM; with HPAF-II cells (setting [8]), under 0.1 µM; on Porcine Brain Tubulin it was under 3 µM.
With `Cc1ccc(NC(=O)c2cc(C#N)cnn2)cc1-c1ccnc(-c2ccnc(NC(=O)C3CC3)c2)c1` [Example 96, 5-cyano-N-(3-(2′-(cyclopropanecarboxamido)-[2,4′-bipyridin]-4-yl)-4-methylphenyl)pyridazine-3-carboxamide], the IC50 in assay [1] is under 0.1 µM; in assay [2] (setting [3]), under 0.1 µM; in assay [2] (setting [4]) it was under 0.1 µM; with HCT-116 cells (setting [5]), 0.1 to 0.5 µM; in the assay with HCT-116 cells (setting [6]), 0.1 to 0.5 µM; in the assay on Pa16c cells it was 1 to 10 µM. For the same compound, the values for the IC50 in the assay on HPAF-II cells (setting [7]), with HPAF-II cells (setting [8]) and at Porcine Brain Tubulin were 0.1 to 0.5 µM, 0.1 to 0.5 µM and 3 to 20 µM, respectively.

For the origin of these results see US20260226084A1, “DUAL RAF AND TUBULIN INHIBITORS AND METHODS OF USE THEREOF” (Deciphera Pharmaceuticals, LLC, priority 2023, published 2026).
